Assay results taken from patent US4556715A, “Nicotinic acid derivatives” (Kyorin Pharmaceutical Co., Ltd., priority 1980, dated 1985).
Where two headings read alike, the source gives them in different places.

Assays:
in vivo = settings: mouse, po, p o, male ICR mice
Source text: The present compounds were given to 6 week-old male mice of the ICR strain and their acute toxicity was examined.

[1] = system: serum and liver lipid levels in rats; assay: Serum and liver lipid levels and relative liver weight in rats (100 mg/kg, 10 days); assay type: in vivo, Male rats of the Wistar strain; settings: for response vs control in vivo at 100 mg/kg: Rattus norvegicus, po
How it was run: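 Male Wistar rats (160-180 g) on stock diet were dosed orally once daily at 100 mg/kg in 0.5% CMC for 10 days; controls got vehicle. Sacrifice 4 hr after last dose with diet withdrawn; liver weighed. Serum and liver Ch, TG and PL measured colorimetrically after lipid extraction.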

[2] = system: serum and liver lipid levels in rats; assay: Serum and liver lipid levels and relative liver weight in rats (25 mg/kg, 10 days); assay type: in vivo, male Wistar rats; settings: Table 4
Procedure: (3) The present compounds and KCD-232 were orally given to male Wistar rats weighing 160-180 g once a day at a dose of 25 mg/kg b.w. for 10 days. Rats were subjected to fast for 4 hr immediately after the last administration of compounds, thereafter they were sacrificed by decapitation and blood was collected, clotted and centrifuged to obtain serum. The liver was removed quickly and weighed. Total lipids were extracted from the serum and liver, and then the levels of total Ch, TG and PL were determined with colorimetric methods.

[3] = system: serum and liver lipid levels in normal rats; assay: Effects on relative liver weight, serum and liver lipid levels in normal rats (100 mg/kg, 7 days); assay type: in vivo, Male Wistar strain rats
Procedure: (1) Effects on relative liver weight, serum and liver lipid levels in normal rats
Male Wistar strain rats, weighing 180-210 g were orally administered the present compounds (X=Cl, n1 =2, 3, 4 and n2 =1) and 4-(4-chlorobenzyloxy)benzyl nicotinate (KCD-232), being X=Cl, n1 =1, n2 =1, respectively, which were suspended in 0.5% carboxymethyl cellulose (CMC) solution once a day at a dose of 100 mg/kg b.w. for 7 days. The last administration was occured in rats fasted overnight. At 4 hr later blood was withdrawn from jugular vein, clotted and centrifuged to obtain serum. The liver was rapidly removed and weighed. Total lipids were extracted from the serum and liver, and cholesterol (Ch), triglycerides (TG) and phospholipids (PL) levels were determined.

[4] = Table 2, 100 mg/kg p.o. 10 days, Mean ± S.E. (n = 9)
[5] = 25 mg/kg p.o. 10 days, Mean ± S.E. (n = 7)
[6] = in parentheses, Control = (100)
[7] = Table 1, 100 mg/kg p.o. 7 days, fasted overnight, mean ± S.E. (n = 6)
[8] = Table 1, in parentheses, Control = (100)

Question: Which results are given for `O=C(OCc1ccc(OCCCc2ccc(Cl)cc2)cc1)c1cccnc1` [n1=3, n2=1, 4-[3-(4-Chlorophenyl)propoxy]benzyl nicotinate]?
Answer: LD50 (in vivo): > 4000 mg/kg; lipid lowering effects compared with KCD-232 (in words) ([1]; 100 mg/kg p.o. 10 days): the lipid lowering effects were superior to that of KCD-232; response vs control in vivo at 100 mg/kg ([1]; 240 h, Table 2, in parentheses, Control = (100), read-out: Liver lipid levels PL, relative to Control (100)): 104%; response vs control in vivo at 100 mg/kg ([1]; Table 2, in parentheses, Control = (100), read-out: Liver lipid levels Ch, relative to Control (100)): 101%; response vs control in vivo at 100 mg/kg ([1]; Table 2, in parentheses, Control = (100), read-out: Liver lipid levels TG, relative to Control (100)): 59.3%; response vs control in vivo at 100 mg/kg ([1]; Table 2, in parentheses, Control = (100), read-out: Serum lipid levels Ch, relative to Control (100)): 71.9%; response vs control in vivo at 100 mg/kg ([1]; Table 2, in parentheses, Control = (100), read-out: Serum lipid levels PL, relative to Control (100)): 65.2%; response vs control in vivo at 100 mg/kg ([1]; Table 2, in parentheses, Control = (100), read-out: Serum lipid levels TG, relative to Control (100)): 24.7%; Liver lipid levels Ch [1, 4]: 3.09 ± 0.15 mg/g liver; Liver lipid levels PL [1, 4]: 39.8 ± 0.8 mg/g liver; Liver lipid levels TG [1, 4]: 3.75 ± 0.27 mg/g liver; Relative liver weight [1, 4]: 3.89 ± 0.10 g/100 g b.w.; Serum lipid levels Ch [1, 4]: 62.3 ± 3.1 mg/dL; Serum lipid levels PL [1, 4]: 96.8 ± 5 mg/dL; Serum lipid levels TG [1, 4]: 30.6 ± 2.8 mg/dL; Relative liver weight, relative to Control (100) ([1]; Table 2, in parentheses, Control = (100)): 101; Liver lipid levels Ch [2, 5]: 3.16 ± 0.13 mg/g liver; Liver lipid levels PL [2, 5]: 40.3 ± 0.9 mg/g liver; Liver lipid levels TG [2, 5]: 3.97 ± 0.35 mg/g liver; Relative liver weight [2, 5]: 3.84 ± 0.13 g/100 g b.w.; Serum lipid levels Ch [2, 5]: 60.3 ± 5.3 mg/dL; Serum lipid levels PL [2, 5]: 83.2 ± 8.5 mg/dL; Serum lipid levels TG [2, 5]: 24.2 ± 2.8 mg/dL; Liver lipid levels Ch, relative to Control (100) [2, 6]: 97.2; Liver lipid levels PL, relative to Control (100) [2, 6]: 106.1; Liver lipid levels TG, relative to Control (100) [2, 6]: 53.4; Relative liver weight, relative to Control (100) [2, 6]: 109; Serum lipid levels Ch, relative to Control (100) [2, 6]: 76.9; Serum lipid levels PL, relative to Control (100) [2, 6]: 76.9; Serum lipid levels TG, relative to Control (100) [2, 6]: 64.0; serum Ch, TG and PL (in words) ([3]; 100 mg/kg p.o. 7 days, compared with control): significantly reduced serum Ch, TG and PL; Liver lipid levels Ch [3, 7]: 3.57 ± 0.15 mg/g liver; Liver lipid levels PL [3, 7]: 34.1 ± 1.8 mg/g liver; Liver lipid levels TG [3, 7]: 5.95 ± 1.83 mg/g liver; Serum lipid levels Ch [3, 7]: 48.4 ± 5.4 mg/dL; Serum lipid levels PL [3, 7]: 64.4 ± 5.2 mg/dL; Serum lipid levels TG [3, 7]: 18 ± 2.5 mg/dL; Relative liver weight ([3]; Table 1, 100 mg/kg p.o. 7 days, mean ± S.E. (n = 6)): 3.20 ± 0.06 g/100 g b.w.; Liver lipid levels Ch, relative to Control (100) [3, 8]: 101; Liver lipid levels PL, relative to Control (100) [3, 8]: 92; Liver lipid levels TG, relative to Control (100) [3, 8]: 81; Relative liver weight, relative to Control (100) [3, 8]: 104; Serum lipid levels Ch, relative to Control (100) [3, 8]: 64; Serum lipid levels PL, relative to Control (100) [3, 8]: 63; Serum lipid levels TG, relative to Control (100) [3, 8]: 53
